How the values were obtained:
CCK receptor (pancreas) = biological target: T1, CCK receptor (pancreas) (Rattus norvegicus, UniProt P30551); test: CCK Receptor Binding (Pancreas), inhibition of 125I-CCK-8 binding; set-up: species or system rat (male Sprague-Dawley); settings: rat pancreas membranes, 50 pM 125I-CCK-8, pH 6.5, 25° C., 2 hours
T1 construct: The whole pancreas was dissected free of fat tissue and was homogenized; from tissue; host or cells: rat whole pancreas membranes
T1 sequence (P30551 1-444): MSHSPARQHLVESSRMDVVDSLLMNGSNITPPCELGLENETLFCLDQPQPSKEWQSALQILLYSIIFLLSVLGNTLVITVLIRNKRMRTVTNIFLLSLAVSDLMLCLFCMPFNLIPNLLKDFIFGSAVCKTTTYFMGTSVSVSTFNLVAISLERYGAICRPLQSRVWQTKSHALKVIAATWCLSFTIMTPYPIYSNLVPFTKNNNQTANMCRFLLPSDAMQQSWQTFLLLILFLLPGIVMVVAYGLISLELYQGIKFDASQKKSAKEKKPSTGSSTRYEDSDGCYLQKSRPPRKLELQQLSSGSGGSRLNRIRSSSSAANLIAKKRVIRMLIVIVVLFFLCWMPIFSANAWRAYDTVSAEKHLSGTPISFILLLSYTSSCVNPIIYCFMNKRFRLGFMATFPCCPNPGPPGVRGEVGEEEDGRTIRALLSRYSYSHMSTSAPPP
Description: 1. CCK Receptor Binding (Pancreas)
CCK-8 sulphated was radiolabelled with ^125 I-Bolton Hunter reagent (2000 Ci/mmole). Receptor binding was performed according to Chang and Lotti (Proc. Natl. Acad. Sci. 83, 4923-4926, 1986) with minor modifications.
Male Sprague-Dawley rats (150-200 g) were sacrificed by decapitation. The whole pancreas was dissected free of fat tissue and was homogenized in 25 volumes of ice-cold 10 mM N-2-hydroxyethyl-piperazine-N'-2-ethane sulphonic acid (HEPES) buffer with 0.1% soya bean trypsin inhibitor (pH 7.4 at 25° C.) with a Kinematica Polytron. The homogenates were centrifuged at 47,800 g for 10 min. Pellets were resuspended in 10 volumes of binding assay buffer (20 mM (HEPES)), 1 mM ethylene glycol-bis-(β-aminoethylether-N,N'-tetraacetic acid) (EGTA), 5 mM MgCl2, 150 mM NaCl, bacitracin 0.25 mg/ml, soya bean trypsin inhibitor 0.1 mg/ml, and bovine serum albumin 2 mg/ml pH 6.5 at 25° C.) using a Teflon (trademark) homogenizer, 15 strokes at 500 rpm. The homogenate was further diluted in binding assay buffer to give a final concentration of 0.5 mg original wet weight/1 ml buffer. […] The radioactivity on the filters was counted with a LKB gamma counter. […]

CCK receptor (brain) = biological target: T2, CCK receptor (brain) (Cavia porcellus, UniProt H0VZC5); test: CCK Receptor Binding (Brain), inhibition of 125I-CCK-8 binding; set-up: species or system guinea pig (male Hartley); settings: guinea pig cortex membranes, 50 pM 125I-CCK-8, pH 6.5, 25° C., 2 hours
T2 construct: the cortex was removed and homogenized in 25 mL ice-cold 0.32M sucrose; from tissue; host or cells: guinea pig brain cortex P2 membranes
T2 sequence (H0VZC5 entry or part of it): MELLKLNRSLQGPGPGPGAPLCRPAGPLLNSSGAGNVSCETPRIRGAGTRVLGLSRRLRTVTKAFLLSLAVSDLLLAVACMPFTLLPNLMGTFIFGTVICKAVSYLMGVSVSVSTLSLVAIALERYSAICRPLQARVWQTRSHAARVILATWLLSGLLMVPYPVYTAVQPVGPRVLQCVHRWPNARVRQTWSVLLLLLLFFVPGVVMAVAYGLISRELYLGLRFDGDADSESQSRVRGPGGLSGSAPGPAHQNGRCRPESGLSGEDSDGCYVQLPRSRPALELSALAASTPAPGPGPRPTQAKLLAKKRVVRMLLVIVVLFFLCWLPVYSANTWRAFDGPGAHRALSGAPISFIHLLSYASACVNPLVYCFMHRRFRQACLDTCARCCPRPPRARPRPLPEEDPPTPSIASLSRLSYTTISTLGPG
Description: 2. CCK Receptor Binding (Brain)
CCK-8 sulphated was radiolabelled and the binding was performed according to the description for the pancreas method with minor modifications.
Male Hartley guinea pigs (300-500 g) were sacrificed by decapitation and the cortex was removed and homogenized in 25 mL ice-cold 0.32M sucrose. The homogenates were centrifuged at 1000 g for 10 minutes and the resulting supernatant was recentrifuged at 20,000 g for 20 minutes. The P2 pellet was resuspended in binding assay buffer (20 mM HEPES, 5 mM MgCl2, 0.25 mg/ml bacitracin, 1 mM EGTA pH 6.5 at 25° C.), using a Teflon (trademark) homogenizer (5 strokes at 500 rpm) to give a final concentration of 10 mg original wet weight/1.2 ml buffer. For the binding assay, 50 μl of buffer (for total binding) or unlabelled CCK-8 sulphated to give a final concentration of 1 μM (for nonspecific binding) or the compounds of Formula I (for determination of inhibition of ^125 I-CCK-8 binding) and 50 μl of 500 pM ^125 I-CCK-8 (i.e. final concentration of 50 pM) were added to 400 μl of the membrane suspensions in microfuge tubes. All assays were run in duplicate. […] The radioactivity on the filters was counted with a LKB gamma counter. […]

Compound: CN1C(=O)C(NC(=O)Nc2cccc(C(=O)NS(=O)(=O)c3ccccc3)c2)N=C(c2ccncc2)c2ccccc21 (racemic) [Example 1, N-[3(R,S)-2,3-Dihydro-1-methyl-2-oxo-5-(pyridin-4-yl)-1H-1,4-benzodiazepin-3-yl]-N'-[3-(phenylsulphonylaminocarbonyl)phenyl]urea]
- IC50 (CCK receptor (pancreas)): 790 nM
- IC50 (CCK receptor (brain)): 130 nM

Compound: CC(C)S(=O)(=O)NC(=O)c1cccc(NC(=O)NC2N=C(c3ccncc3)c3ccccc3N(C)C2=O)c1 (racemic) [Example 2, N-[3(R,S)-2,3-Dihydro-1-methyl-2-oxo-5-(pyridin-4-yl)-1H-1,4-benzodiazepin-3-yl)-N'-[3-(isopropylsulphonylaminocarbonyl)phenyl]urea]
- IC50 (CCK receptor (pancreas)): 1630 nM
- IC50 (CCK receptor (brain)): 300 nM

— patent US5302591A, “Benzodiazepine derivatives” (Merck Sharpe & Dohme Ltd., priority 1992, dated 1994)
